In paper PMC6753678, “Fueling Open Innovation for Malaria Transmission-Blocking Drugs: Hundreds of Molecules Targeting Early Parasite Mosquito Stages” (Frontiers in Microbiology, 2019):
Where two headings read alike, the source gives them in different places.

What was measured:
[1] = tested on: 3D7-strain P. falciparum asexual parasites; test: P. falciparum asexual growth inhibition assay (Pf GIA); format: cell-based, Plasmodium falciparum; details: dose response confirmation; read-out: Pf asexual growth inhibition assays IC50
How it was run: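 Parasites at 0.25% parasitemia, 2% hematocrit in Albumax-supplemented RPMI were exposed to compounds in dose response for 72 h at 37°C under 5% CO2/5% O2. Viability was read as LDH activity (NBT/diaphorase, A650 after freeze-thaw). Percent inhibition was calculated against chloroquine and DMSO controls, mean of three biological replicates.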

HepG2 cells = test: HepG2 cytotoxicity assay; details: for IC50: read-out: HepG2 cytotoxicity assay IC50, dose response confirmation; for Pb ODA (this manuscript) HepG2 cytoxicity: HepG2 cytotoxicity listed with the Pb ODA data set (this manuscript)
How it was run: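 Cells at 2,500 per well in MEM with 10% fetal bovine serum and 1% NEAA were exposed to test compounds for 48 h at 37°C, 5% CO2. Viability was read by fluorescence, with percent inhibition calculated against 50 μM doxorubicin (positive) and DMSO (negative) controls.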

[2] = tested on: P. berghei ookinete development; details: for % inhibition, Replicate A / % inhibition, Replicate B: primary screen at 1 μM
[3] = unified HepG2 value across the three screens
[4] = read-out: Pb ODA IC50, this manuscript
[5] = read-out: Pb Ookinete development assay IC50, dose response confirmation
[6] = HepG2 values of the three screens unified
[7] = read-out: Pb ODA (this manuscript) IC50, P. berghei ookinete development assay, this manuscript

SMILES | IC50 [1] [µM] | IC50 (HepG2 cells) [µM] | Unified cytotox (HepG2 cells; [3]) [µM] | Is compound selective in assay? Pb ODA active? ([2]; 1: YES, 0: NO) | % inhibition, Replicate A [2] [%] | % inhibition, Replicate B [2] [%] | IC50 [2, 4] [µM] | IC50 [2, 5] [µM] | Unified cytotox (HepG2 cells) [µM] | Is compound selective in assay? Pb ODA active? [2] | HepG2 cytoxicity (Pb ODA, this manuscript) (HepG2 cells) [µM] | Unified cytotox (HepG2 cells; [6]) [µM] | Pb ODA (this manuscript) HepG2 cytoxicity (HepG2 cells) [µM] | IC50 [2, 7] [µM]
CCOC(=O)[C@H](Cc1cc([N+](=O)[O-])c(Oc2ccc(OC)c(Cc3ccc(OC)c(C(C)C)c3)c2)c([N+](=O)[O-])c1)NC(=O)C(F)(F)F [TCMDC-139398] | 9.49 | 100 | 100.00 | 1 (1: YES) | 63.87 | 33.42 | 4.9 | 4.9 | – | – | – | – | – | –
Cl.O=c1cc(NCCCNCc2sc(Br)c(Br)c2Br)[nH]c2ccccc12 [TCMDC-139647] | 0.977 | 34.7 | 34.67 | 1 (1: YES) | 55.06 | 82.69 | 1.96 | 1.96 | – | – | – | – | – | –
Cl.Oc1cc(-c2nc(-c3ccccc3)[nH]c2-c2ccncc2)ccc1Cl [TCMDC-139660] | 1.79 | 9.77 | – | – | 79.35 | 69.44 | 1.76 | 1.76 | 9.77 | 0 (key: 1: YES; 0: NO) | – | – | – | –
CC(C)Nc1nc(NC2CCCCC2)nc(N2CCCCCCC2)n1 [TCMDC-139688] | 2.24 | 33.1 | 33.11 | 1 (1: YES) | 67.11 | 52.41 | – | 3.26 | – | – | – | – | – | –
COc1cc(NC(=O)Nc2ccc(Br)cc2C(=O)Nc2ccc(Br)cc2)cc(OC)c1OC [TCMDC-139733] | 2.09 | 100 | 100.00 | 1 (1: YES) | 44.63 | 66.05 | 6.38 | 6.38 | – | – | – | – | – | –
C=C[C@H]1CN(CCCCCCC)CC[C@H]1CC(=O)Nc1cnnc2ccc(OC)cc12.O=C(O)C(=O)O [TCMDC-139791] | 0.276 | 33.9 | 33.88 | 1 (1: YES) | 17.33 | 54.49 | 2.77 | 2.77 | – | – | – | – | – | –
COc1ccc(Cn2ccc3c4c(N)nc(N)nc4ccc32)cc1 [TCMDC-139862] | < 0.0002 | 0.011 | – | 0 (0: NO) | 43.74 | 74.79 | 0.32 | 0.315 | – | – | 0.011 | 0.011 | – | –
COc1ccc2nccc([C@@H](O)CN3CCC(NCCOc4cc(C(F)(F)F)ccc4F)CC3)c2c1.O=C(O)C(=O)O [TCMDC-140658] | 0.035 | 0.00343 | – | 0 (0: NO) | 63.44 | 46.33 | 3.21 | 3.21 | – | – | 0.00343 | 0.00343 | – | –
COc1ccc2nccc([C@@H](O)CN3CCC(NCCOc4ccc(F)cc4Cl)CC3)c2c1.O=C(O)C(=O)O [TCMDC-140660] | 0.173 | 32.4 | – | 0 (0: NO) | 30.16 | 50.20 | 8.29 | 8.29 | – | – | 32.36 | 32.36 | – | –
COc1cc(-c2nc(C(C)(C)CN)[nH]c2-c2ccncc2)ccc1Br.Cl [TCMDC-140674] | 3.12 | 39.8 | – | – | 75.42 | 38.48 | – | 1.32 | – | 1 (key: 1: YES; 0: NO) | – | – | 39.81 | 1.32
COc1cccc(CNCC(C)(C)c2nc(-c3ccc(Cl)c(O)c3)c(-c3ccncc3)[nH]2)c1.Cl [TCMDC-140687] | 0.759 | 5.01 | – | – | 13.26 | 51.15 | – | 3.74 | – | 0 (key: 1: YES; 0: NO) | – | – | 5.01 | 3.74
